# Laboratory results reported in patent US20230339915A1 (Vertex Pharmaceuticals Incorporated, priority 2020, published 2023).
# Legend:
# [1] = target: NL20 human bronchial epithelial cells expressing human Z-AAT (Homo sapiens (Human), UniProt P01009, E366K); assay: AAT Function Assay (MSD Assay NL20-SI Cell Line); type: cell-based; details: functionally active AAT (AAT-hNE complex, MSD) in supernatant of NL20 cells expressing human Z-AAT; read-out: NL20 Functional EC50
# Procedure, shortened: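 NL20 bronchial epithelial cells expressing Z-AAT, induced with 0.1 μM doxycycline, were treated with compound overnight. Functional AAT in supernatant was measured by complex formation with excess human neutrophil elastase, captured on anti-AAT plates, detected with Sulfo-tagged anti-elastase on MSD, and quantified against M-AAT standards (0.156–320 ng/mL).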
# [2] = target: purified Z-AAT protein from human plasma (Homo sapiens (Human), UniProt P01009, E366K); assay: Biochemical Assay (Z-AAT Elastase Activity Assay); details: purified Z-AAT pre-incubated with compound 1 hour, then human neutrophil elastase and fluorescent substrate
# Procedure, shortened: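 Purified plasma Z-AAT (20 nM) preincubated with compounds 1 h at room temperature, then 3 nM human neutrophil elastase added in PBS + 0.01% BRIJ35 for 30 min to form suicide complex. Residual elastase activity read immediately by fluorescence after adding 300 μM MeOSuc-AAPV-AMC substrate solution.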
# Chain of NL20 human bronchial epithelial cells expressing human Z-AAT (P01009 25-418 E366K limits assumed): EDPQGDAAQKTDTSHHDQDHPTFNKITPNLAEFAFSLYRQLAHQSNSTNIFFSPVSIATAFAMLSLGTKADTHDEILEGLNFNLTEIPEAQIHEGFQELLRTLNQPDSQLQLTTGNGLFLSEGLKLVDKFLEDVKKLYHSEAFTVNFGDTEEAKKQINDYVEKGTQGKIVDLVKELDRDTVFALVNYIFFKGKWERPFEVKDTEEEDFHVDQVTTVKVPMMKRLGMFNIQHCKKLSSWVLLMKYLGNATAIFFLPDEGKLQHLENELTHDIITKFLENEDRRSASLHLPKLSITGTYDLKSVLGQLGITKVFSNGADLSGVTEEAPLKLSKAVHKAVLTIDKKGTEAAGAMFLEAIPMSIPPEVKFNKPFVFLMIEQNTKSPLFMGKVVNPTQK
# Chain of purified Z-AAT protein from human plasma (P01009 25-418 E366K limits assumed): as above
SMILES,EC50 [1],IC50 [2]
N#Cc1c(C2CCCO2)n(-c2ccc(F)cc2)c2ccc(O)cc12 (stereo not shown) [Compound 198],> 2 µM,> 30 µM
N#Cc1c(C2CCNCC2)n(-c2ccc(F)cc2)c2ccc(O)cc12 [Compound 200],> 2 µM,> 30 µM
N#Cc1c(C2CCOCC2)n(-c2ccccc2)c2ccc(O)cc12 [Compound 202],> 2 µM,> 30 µM
N#Cc1c(C2CC2)n(-c2ccc(F)cc2)c2ccc(O)cc12 [Compound 203],< 0.5 µM,> 30 µM
"Cc1cc(-n2c(C)c(C#N)c3cc(O)cc(C)c32)ccc1F [Compound 208, 1-(4-fluoro-3-methylphenyl)-5-hydroxy-2,7-dimethyl-1H-indole-3-carbonitrile]",> 2 µM,> 30 µM
Cc1cc2c(cc1O)c(C#N)c(C)n2-c1ccc(F)c(C)c1 [Compound 210],> 2 µM,> 30 µM
"CNS(=O)(=O)N1CC(c2c(C(C)C)n(-c3ccc(F)c(C)c3)c3ccc(O)cc23)C1 [Compound 213, 3-(1-(4-fluoro-3-methylphenyl)-5-hydroxy-2-isopropyl-1H-indol-3-yl)-N-methylazetidine-1-sulfonamide]",> 2 µM,> 5 µM
Cc1cc(-n2c(C(C)C)c([C@@H]3COC[C@@H]3C#N)c3cc(O)ccc32)ccc1F [Compound 216],> 2 µM,> 5 µM
"Cc1cc(-n2c(C(C)C)c([C@H]3C[C@@H](c4nn[nH]n4)C3)c3cc(O)ccc32)ccc1F [Compound 217, 1-(4-fluoro-3-methyl-phenyl)-2-isopropyl-3-[3-(2H-tetrazol-5-yl)cyclobutyl]indol-5-ol]",0.5 to 2 µM,> 5 µM
"Cc1cc(-n2c(C(C)C)c([C@H]3C[C@H](C(=O)NS(C)(=O)=O)C3)c3cc(O)ccc32)ccc1F [Compound 220, trans-3-[1-(4-fluoro-3-methyl-phenyl)-5-hydroxy-2-isopropyl-indol-3-yl]-N-methylsulfonyl-cyclobutanecarboxamide]",> 2 µM,> 5 µM
"Cc1cc(-n2c(C3CCOCC3)c([C@H]3C[C@@H](c4noc(=O)[nH]4)C3)c3cc(O)ccc32)ccc1F [Compound 224, cis-3-[3-[1-(4-fluoro-3-methyl-phenyl)-5-hydroxy-2-tetrahydropyran-4-yl-indol-3-yl]cyclobutyl]-4H-1,2,4-oxadiazol-5-one]",> 2 µM,> 30 µM
"Cc1cc(-n2c(C(C)C)c([C@H]3C[C@H](CO)C3)c3cc(O)ccc32)ccc1F [Compound 225, Trans-1-(4-fluoro-3-methyl-phenyl)-3-[3-(hydroxymethyl)cyclobutyl]-2-isopropyl-indol-5-ol]",> 2 µM,> 30 µM

# Now from value to molecule:
EC50 [1],IC50 [2],SMILES
> 2 µM,> 30 µM,CC(C)(C)OC(=O)N1CCC(c2c(C#N)c3cc(O)ccc3n2-c2ccc(F)cc2)CC1 [Compound 199]
> 2 µM,> 30 µM,"CCCn1c(C(C)C)c(C#N)c2cc(O)ccc21 [Compound 204, 5-hydroxy-2-isopropyl-1-propyl-1H-indole-3-carbonitrile]"
> 2 µM,> 30 µM,"CCCn1c(C(C)(C)C)c(C#N)c2cc(O)ccc21 [Compound 205, 2-(tert-butyl)-5-hydroxy-1-propyl-1H-indole-3-carbonitrile]"
> 2 µM,> 30 µM,"CS(N)(=O)=Cc1c(C#N)c2cc(O)ccc2n1-c1ccc(F)cc1 (stereo not shown) [Compound 206, 1-(3-cyano-1-(4-fluorophenyl)-5-hydroxy-1H-indol-2-yl)-S-methylmethanesulfinamide]"
> 2 µM,> 30 µM,N#Cc1c(C2=S(N)(=O)CCC2)n(-c2ccc(F)cc2)c2ccc(O)cc12 (stereo not shown) [Compound 207]
> 2 µM,> 30 µM,"Cc1cc(-n2c(C)c(C#N)c3cc(O)c(N)cc32)ccc1F [Compound 211, 6-amino-1-(4-fluoro-3-methylphenyl)-5-hydroxy-2-methyl-1H-indole-3-carbonitrile]"
> 2 µM,> 30 µM,"Cc1cc(-n2c(C)c(C#N)c3cc(O)cc(N)c32)ccc1F [Compound 212, 7-amino-1-(4-fluoro-3-methyl-phenyl)-5-hydroxy-2-methyl-indole-3-carbonitrile]"
> 2 µM,> 30 µM,"CC(=O)NS(=O)(=O)N1CC(c2c(C(C)C)n(-c3ccc(F)c(C)c3)c3ccc(O)cc23)C1 [Compound 214, N-((3-(1-(4-fluoro-3-methylphenyl)-5-hydroxy-2-isopropyl-1H-indol-3-yl)azetidin-1-yl)sulfonyl)acetamide]"
> 2 µM,> 5 µM,"Cc1cc(-n2c(C(C)C)c([C@H]3C[C@@H](C#N)C3)c3cc(O)ccc32)ccc1F [Compound 215, 3-[1-(4-fluoro-3-methyl-phenyl)-5-hydroxy-2-isopropyl-indol-3-yl]cyclobutanecarbonitrile]"
> 2 µM,> 30 µM,"Cc1cc(-n2c(C3CCOCC3)c([C@H]3C[C@H](c4nn[nH]n4)C3)c3cc(O)ccc32)ccc1F [Compound 218, 1-(4-fluoro-3-methyl-phenyl)-2-tetrahydropyran-4-yl-3-[3-(2H-tetrazol-5-yl)cyclobutyl]indol-5-ol]"
> 2 µM,> 5 µM,"Cc1cc(-n2c(C(C)C)c([C@H]3C[C@@H](C(=O)NS(C)(=O)=O)C3)c3cc(O)ccc32)ccc1F [Compound 219, Cis-3-[1-(4-fluoro-3-methyl-phenyl)-5-hydroxy-2-isopropyl-indol-3-yl]-N-methylsulfonyl-cyclobutanecarboxamide]"
0.5 to 2 µM,> 30 µM,"Cc1cc(-n2c(C3CCOCC3)c([C@H]3C[C@H](c4noc(=O)[nH]4)C3)c3cc(O)ccc32)ccc1F [Compound 223, Trans-3-[3-[1-(4-fluoro-3-methyl-phenyl)-5-hydroxy-2-tetrahydropyran-4-yl-indol-3-yl]cyclobutyl]-4H-1,2,4-oxadiazol-5-one]"
> 2 µM,> 30 µM,"Cc1cc(-n2c(C(C)C)c([C@H]3C[C@@H](CO)C3)c3cc(O)ccc32)ccc1F [Compound 226, cis-1-(4-fluoro-3-methyl-phenyl)-3-[3-(hydroxymethyl)cyclobutyl]-2-isopropyl-indol-5-ol]"
> 2 µM,> 30 µM,Cc1cc(-n2c(C(C)C)c([C@@H]3CC[C@@H]3CO)c3cc(O)ccc32)ccc1F [Compound 227]
